From ChEMBL document CHEMBL5053488, “Motobamide, an Antitrypanosomal Cyclic Peptide from a Leptolyngbya sp. Marine Cyanobacterium” (J Nat Prod, 2021)
The source made the active and inactive calls. No cut-off for these calls is given here. Numbered stars: 1 amine (or outer) side, 2 acyl side, 3 side chain; on linkers, the order of the positions; unused ones are H or OH. Square brackets hold non-standard residues; d marks the D form. Peptide text beside a SMILES is read from it. X1 = CC(C)=CC[C@@]12C[C@@H](C(=O)[*:2])N([*:1])[C@@H]1Nc1ccccc12

Tests used:
HeLa = assay: Growth inhibition of human HeLa cells at 10 uM incubated for 72 hrs by MTT assay; type: functional, cell-based
[1] = Ratio of IC50 for cytotoxicity against human WI-38 cells to IC50 for antitrypanosomal activity against Trypanosoma brucei rhodesiense IL-1501
[2] = test system: Trypanosoma brucei rhodesiense; assay: Antitrypanosomal activity against Trypanosoma brucei rhodesiense IL-1501 assessed as parasite growth inhibition incubated for 69 hrs by AlamarBlue assay; type: functional, organism-based; conditions: IL-1501, 69 h
HL-60 = assay: Growth inhibition of human HL-60 cells at 10 uM incubated for 72 hrs by MTT assay; type: functional, cell-based
WI-38 = assay: Cytotoxicity against human WI-38 cells assessed as cell growth inhibition measured after 72 hrs by MTT assay; type: cell-based; conditions: WI-38, 72 h

SMILES: CSCC[C@@H]1NC(=O)[C@@H]2CCCN2C(=O)[C@H](C(C)C)NC(=O)[C@@H]2CCCN2C(=O)[C@@H]2CCCN2C(=O)[C@H](CC(C)C)NC(=O)[C@@H]2C[C@@]3(CC=C(C)C)c4ccccc4N[C@H]3N2C(=O)[C@@H]2CCCN2C(=O)[C@H](C(C)C)NC(=O)[C@H](CC(C)C)NC1=O (cyclo(LPPVPMLVP[X1]))
- growth inhibition (GI) (HeLa): inactive
- Ratio IC50 [1]: >20
- IC50 [2]: 2.3 µM
- growth inhibition (GI) (HL-60): inactive
- IC50 (WI-38): 55 µM
